Test results published in patent US20090036525A1, “Non-Natural Amino Acid Derivatives” (POXIMAGEN LTD., priority 2006, published 2009).
Where a SMILES comes first, the peptide text is derived from it. [ ]: non-standard residue; d: D form. Dopa = N[C@@H](Cc1ccc(O)c(O)c1)C(=O)O; Cha = N[C@@H](CC1CCCCC1)C(=O)O

Tested on: 6-OHDA-lesioned rats
Assay: Induction of rotational activity in 6-OHDA-lesioned rats
Format: in vivo, rat
Settings: 63.4 μmole/kg, after benserazide 10 mg/kg, rotations over 4 hours

Compound	AUC activity (as % of AUC activity L-DOPA) (p.o.)	Peak activity (as % of maximal activity L-DOPA) (p.o.)	duration of activity (as % of duration of activity L-DOPA) (p.o.)	AUC activity (as % of AUC activity L-DOPA) (i.p.)	Peak activity (as % of maximal activity L-DOPA) (i.p.)	duration of activity (as % of duration of activity L-DOPA) (i.p.)
COC(=O)[C@H](Cc1ccc(O)c(O)c1)NC(=O)[C@@H](N)CC1CCCCC1.Cl [Example 1, (S)-2-Cyclohexyl-1-[(S)-2-(3,4-dihydroxyphenyl)-1-methoxycarbonylethyl-carbamoyl]-ethylammonium chloride] (H-[Cha]-[Dopa]-OMe)	40 % of L-DOPA	53 % of L-DOPA	45 % of L-DOPA	–	–	–
COC(=O)[C@H](Cc1ccc(OC(C)=O)c(OC(C)=O)c1)NC(=O)[C@@H](N)CC1CCCCC1.Cl [Example 2, (S)-2-Cyclohexyl-1-[(S)-2-(3,4-diacetoxyphenyl)-1-methoxycarbonyl-ethylcarbamoyl]-ethylammonium chloride]	–	–	–	32 % of L-DOPA	31 % of L-DOPA	27 % of L-DOPA
COC(=O)[C@H](Cc1ccc(O)c(O)c1)NC(=O)[C@@H](N)[C@@H](C)c1ccccc1.Cl [Example 12, (1S,2S)-1-[(S)-2-(3,4-Dihydroxyphenyl)-1-methoxycarbonylethylcarbamoyl]-2-phenylpropylammonium chloride]	50 % of L-DOPA	62 % of L-DOPA	46 % of L-DOPA	–	–	–
COC(=O)[C@H](Cc1ccc(O)c(O)c1)NC(=O)[C@@H](N)[C@H](C)c1ccccc1.Cl [Example 13, (1S,2R)-1-[(S)-2-(3,4-Dihydroxyphenyl)-1-methoxycarbonyl-ethylcarbamoyl]-2-phenylpropylammonium; chloride]	106 % of L-DOPA	141 % of L-DOPA	76 % of L-DOPA	–	–	–
